Data as given in ChEMBL document CHEMBL4665688, “Discovery of AB680: A Potent and Selective Inhibitor of CD73” (J Med Chem, 2020).

Key:
5'-nucleotidase [1] = target: T1, 5'-nucleotidase (Homo sapiens, UniProt P21589); assay: Inhibition of human CD73 expressed in CHO cells using AMP as substrate preincubated for 60 mins followed by substrate addition and measured after 60 mins by PiColorLock gold reagent based colorimetric assay; assay type: cell-based
[2] = Clearance in Sprague-Dawley rat at 0.5 mg/kg, iv; assay type: ADME, organism-based; conditions: in vivo
5'-nucleotidase [3] = target: T1, 5'-nucleotidase; assay: Inhibition of human CD73 using AMP as substrate by Malachite green phosphate reagent-based assay

T1 sequence (P21589 whole entry): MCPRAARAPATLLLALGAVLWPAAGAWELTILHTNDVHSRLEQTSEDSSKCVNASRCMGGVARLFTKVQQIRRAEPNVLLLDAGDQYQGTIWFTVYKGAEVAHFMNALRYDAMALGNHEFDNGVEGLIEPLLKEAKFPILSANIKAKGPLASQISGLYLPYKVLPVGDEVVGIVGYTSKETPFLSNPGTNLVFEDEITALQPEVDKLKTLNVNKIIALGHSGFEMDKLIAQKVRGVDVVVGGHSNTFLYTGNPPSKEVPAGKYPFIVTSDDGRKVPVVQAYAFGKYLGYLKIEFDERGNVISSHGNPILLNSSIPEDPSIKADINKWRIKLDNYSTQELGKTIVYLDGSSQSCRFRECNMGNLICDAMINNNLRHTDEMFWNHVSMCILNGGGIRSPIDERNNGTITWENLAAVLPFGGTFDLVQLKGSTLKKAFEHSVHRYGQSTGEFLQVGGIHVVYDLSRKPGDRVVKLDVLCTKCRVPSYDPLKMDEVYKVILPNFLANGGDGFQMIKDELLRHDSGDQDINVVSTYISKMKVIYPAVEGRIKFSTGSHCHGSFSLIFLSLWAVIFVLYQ

Row | SMILES | IC50 (5'-nucleotidase [1]) [nM] | clearance [2] [mL/min/kg] | IC50 (5'-nucleotidase [3]) [nM]
1 | O=P(O)(O)CP(=O)(O)OC[C@H]1O[C@@H](n2cnc3c(N4CCCC4)nc(Cl)nc32)[C@@H](F)[C@@H]1O | 0.9 |  | 
2 | CC(C)Nc1nc(Cl)nc2c1ncn2[C@@H]1O[C@H](COP(=O)(O)CP(=O)(O)O)[C@@H](O)[C@@H]1F | 3.6 |  | 
3 | C[C@H](Nc1nc(Cl)nc2c1ccn2[C@@H]1O[C@H](COP(=O)(O)CP(=O)(O)O)[C@@H](O)[C@H]1O)c1ccccc1F | 0.028 | 0.833 | 
4 | O=P(O)(O)CP(=O)(O)OC[C@H]1O[C@@H](n2cnc3c(N[C@H]4CCOC4)nc(Cl)nc32)[C@@H](F)[C@@H]1O | 0.8 |  | 
5 | CC(C)Nc1nc(Cl)nc2c1ncn2[C@@H]1O[C@H](COP(=O)(O)CP(=O)(O)O)[C@@H](O)[C@H]1O | 0.7 |  | 
6 | O=P(O)(O)CP(=O)(O)OC[C@H]1O[C@@H](n2cnc3c(NC4CCCC4)nc(C(O)c4ccccc4)nc32)[C@@H](F)[C@@H]1O (stereo partly specified) | 3.3 |  | 
7 | O=P(O)(O)CP(=O)(O)OC[C@H]1O[C@@H](n2cnc3c(NCc4cccc(Cl)c4)nc(Cl)nc32)[C@@H](F)[C@@H]1O | 1.3 |  | 
8 | C[C@H](Nc1nc(Cl)nc2c1cnn2[C@@H]1O[C@H](COP(=O)(O)CP(=O)(O)O)[C@@H](O)[C@H]1O)c1cccc(F)c1 | 0.031 | 0.833 | 
9 | CCNc1nc(Cl)nc2c1ncn2[C@@H]1O[C@H](COP(=O)(O)CP(=O)(O)O)[C@@H](O)[C@@H]1F | 5 |  | 
10 | C[C@H](Nc1nc(Cl)nc2c1ncn2[C@@H]1O[C@H](COP(=O)(O)CP(=O)(O)O)[C@@H](O)[C@@H]1F)c1ccccc1 | 4.1 | 0.35 | 
11 | O=P(O)(O)CP(=O)(O)OC[C@H]1O[C@@H](n2cnc3c(NCc4ccc(Cl)cc4)nc(Cl)nc32)[C@@H](F)[C@@H]1O | 2.4 |  | 
12 | C[C@H](Nc1nc(Cl)nc2c1ccn2[C@@H]1O[C@H](COP(=O)(O)CP(=O)(O)O)[C@@H](O)[C@H]1O)c1ccc(F)cc1 | 0.031 | 0.5 | 
13 | O=P(O)(O)CP(=O)(O)OC[C@H]1O[C@@H](n2cnc3c(NCc4ccccc4)nc(-c4ccccc4)nc32)[C@@H](F)[C@@H]1O | 10 |  | 
14 | O=P(O)(O)CP(=O)(O)OC[C@H]1O[C@@H](n2cnc3c(NC4CC4)nc(Cl)nc32)[C@H](O)[C@@H]1O | 1.7 |  | 
15 | O=P(O)(O)CP(=O)(O)OC[C@H]1O[C@@H](n2cnc3c(NCc4ccccc4)nc(Cl)nc32)[C@H](O)[C@@H]1O | 0.3 |  | 
16 | CNc1nc(NCc2ccccc2)c2ncn([C@@H]3O[C@H](COP(=O)(O)CP(=O)(O)O)[C@@H](O)[C@H]3O)c2n1 | 5 |  | 
17 | CNc1nc(Cl)nc2c1ncn2[C@@H]1O[C@H](COP(=O)(O)CP(=O)(O)O)[C@@H](O)[C@@H]1F | 12 |  | 
18 | O=P(O)(O)CP(=O)(O)OC[C@H]1O[C@@H](n2cnc3c(NC4CCCC4)nc(C(O)C4CCOCC4)nc32)[C@@H](F)[C@@H]1O (stereo partly specified) | 202 |  | 
19 | COc1nc(NCc2ccccc2)c2ncn([C@@H]3O[C@H](COP(=O)(O)CP(=O)(O)O)[C@@H](O)[C@H]3O)c2n1 | 2.2 |  | 

Row | SMILES | IC50 (5'-nucleotidase [1]) [nM] | clearance [2] [mL/min/kg] | IC50 (5'-nucleotidase [3]) [nM]
20 | C[C@H](Nc1nc(Cl)nc2c1cnn2[C@@H]1O[C@H](COP(=O)(O)CP(=O)(O)O)[C@@H](O)[C@@H]1F)c1ccccc1 | 5.4 | 0.483 | 
21 | O=P(O)(O)CP(=O)(O)OC[C@H]1O[C@@H](n2ncc3c(NCc4ccccc4)nc(Cl)nc32)[C@@H](F)[C@@H]1O | 5.9 |  | 
22 | O=P(O)(O)CP(=O)(O)OC[C@H]1O[C@@H](n2cnc3c(NCc4ccccc4)nc(Cc4ccccc4)nc32)[C@@H](F)[C@@H]1O | 1.5 |  | 
23 | C[C@H](Nc1nc(Cl)nc2c1cnn2[C@@H]1O[C@H](COP(=O)(O)CP(=O)(O)O)[C@@H](O)[C@H]1O)c1ccc(F)cc1 | 0.095 |  | 
24 | O=P(O)(O)CP(=O)(O)OC[C@H]1O[C@@H](n2cnc3c(NC4CCCC4)nc(C(O)C4CC4)nc32)[C@@H](F)[C@@H]1O (stereo partly specified) | 1.4 |  | 
25 | COCc1nc(NC2CCCC2)c2ncn([C@@H]3O[C@H](COP(=O)(O)CP(=O)(O)O)[C@@H](O)[C@@H]3F)c2n1 | 0.6 |  | 
26 | CN(c1nc(Cl)nc2c1ncn2[C@@H]1O[C@H](COP(=O)(O)CP(=O)(O)O)[C@@H](O)[C@@H]1F)C1CCCC1 | 0.15 |  | 
27 | CCc1nc(NCc2ccccc2)c2ncn([C@@H]3O[C@H](COP(=O)(O)CP(=O)(O)O)[C@@H](O)[C@H]3O)c2n1 | 12 |  | 
28 | C[C@@H](Nc1nc(Cl)nc2c1cnn2[C@@H]1O[C@H](COP(=O)(O)CP(=O)(O)O)[C@@H](O)[C@H]1O)c1ccccc1 | 0.058 | 2.83 | 
29 | C#Cc1nc(NCc2ccccc2)c2ncn([C@@H]3O[C@H](COP(=O)(O)CP(=O)(O)O)[C@@H](O)[C@@H]3F)c2n1 | 2 |  | 
30 | Nc1nc(Cl)nc2c1ncn2[C@@H]1O[C@H](COP(=O)(O)CP(=O)(O)O)[C@@H](O)[C@H]1O | 5 |  | 
31 | C[C@H](Nc1nc(Cl)nc2c1ccn2[C@@H]1O[C@H](COP(=O)(O)CP(=O)(O)O)[C@@H](O)[C@H]1O)c1cccc(F)c1 | 0.032 | 0.667 | 
32 | O=P(O)(O)CP(=O)(O)OC[C@H]1O[C@@H](n2cnc3c(NC4CCCC4)nc(Cl)nc32)[C@@H](F)[C@@H]1O | 0.4 | 2.5 | 
33 | O=P(O)(O)CP(=O)(O)OC[C@H]1O[C@@H](n2cnc3c(NCc4ccccc4)nc(Cl)nc32)[C@@H](F)[C@@H]1O | 0.7 | 1 | 
34 | C[C@@H](Nc1nc(Cl)nc2c1ncn2[C@@H]1O[C@H](COP(=O)(O)CP(=O)(O)O)[C@@H](O)[C@@H]1F)c1ccccc1 | 1.6 | 4.67 | 
35 | O=P(O)(O)CP(=O)(O)OC[C@H]1O[C@@H](n2cnc3c(NC4CC4)nc(Cl)nc32)[C@@H](F)[C@@H]1O | 2.6 |  | 
36 | O=P(O)(O)CP(=O)(O)OC[C@H]1O[C@@H](n2cnc3c(NCc4ccncc4)nc(Cl)nc32)[C@@H](F)[C@@H]1O | 3.6 |  | 
37 | C[C@H](Nc1nc(Cl)nc2c1cnn2[C@@H]1O[C@H](COP(=O)(O)CP(=O)(O)O)[C@@H](O)[C@H]1O)c1ccccc1F | 0.07 | 0.667 | 
38 | O=P(O)(O)CP(=O)(O)OC[C@H]1O[C@@H](n2cnc3c(OCc4ccccc4)nc(Cl)nc32)[C@@H](F)[C@@H]1O | 1.3 |  | 

Row | SMILES | IC50 (5'-nucleotidase [1]) [nM] | clearance [2] [mL/min/kg] | IC50 (5'-nucleotidase [3]) [nM]
39 | C[C@H](Nc1nc(Cl)nc2c1ncn2[C@@H]1O[C@H](COP(=O)(O)CP(=O)(O)O)[C@@H](O)[C@H]1O)c1ccccc1 | 0.3 |  | 
40 | O=P(O)(O)CP(=O)(O)OC[C@H]1O[C@@H](n2cnc3c(N4Cc5ccccc5C4)nc(Cl)nc32)[C@@H](F)[C@@H]1O | 1.1 |  | 
41 | O=P(O)(O)CP(=O)(O)OC[C@H]1O[C@@H](n2ncc3c(NC4CCCC4)nc(Cl)nc32)[C@@H](F)[C@@H]1O | 0.15 | 4.5 | 
42 | C[C@@H](Nc1nc(Cl)nc2c1cnn2[C@@H]1O[C@H](COP(=O)(O)CP(=O)(O)O)[C@@H](O)[C@@H]1F)c1ccccc1 | 2.1 | 9.33 | 
43 | Nc1ncnc2c1ncn2[C@@H]1O[C@H](COP(=O)(O)CP(=O)(O)O)[C@@H](O)[C@H]1O [PHOSPHOMETHYLPHOSPHONIC ACID ADENOSYL ESTER] |  |  | 187
44 | Cc1nc(NCc2ccccc2)c2ncn([C@@H]3O[C@H](COP(=O)(O)CP(=O)(O)O)[C@@H](O)[C@@H]3F)c2n1 | 4 |  | 
45 | O=P(O)(O)CP(=O)(O)OC[C@H]1O[C@@H](n2cnc3c(NCc4ccccc4)nc(N4CCCC4)nc32)[C@H](O)[C@@H]1O | 48 |  | 
46 | O=P(O)(O)CP(=O)(O)OC[C@H]1O[C@@H](n2cnc3c(NCc4ccccc4Cl)nc(Cl)nc32)[C@@H](F)[C@@H]1O | 4.2 |  | 
47 | O=P(O)(O)CP(=O)(O)OC[C@H]1O[C@@H](n2cnc3c(NC4CCCC4)nc(Cl)nc32)[C@H](O)[C@@H]1O | 0.2 |  | 
48 | O=P(O)(O)CP(=O)(O)OC[C@H]1O[C@@H](n2ncc3c(NC4CCCC4)nc(Cl)nc32)[C@H](O)[C@@H]1O | 0.027 | 10.5 | 
49 | O=P(O)(O)CP(=O)(O)OC[C@H]1O[C@@H](n2cnc3c(NCc4ccccc4)nc(CCc4ccccc4)nc32)[C@@H](F)[C@@H]1O | 18 |  | 
50 | O=P(O)(O)CP(=O)(O)OC[C@H]1O[C@@H](n2cnc3c(NCc4ccccc4)nc(C(F)(F)F)nc32)[C@@H](F)[C@@H]1O | 18 |  | 
51 | Cc1nc(NCc2ccccc2)c2ncn([C@@H]3O[C@H](COP(=O)(O)CP(=O)(O)O)[C@@H](O)[C@H]3O)c2n1 | 1.3 |  | 
52 | O=P(O)(O)CP(=O)(O)OC[C@H]1O[C@@H](n2ncc3c(NCc4ccccc4)nc(Cl)nc32)[C@H](O)[C@@H]1O | 0.052 | 3.33 | 
53 | C[C@@H](Nc1nc(Cl)nc2c1ncn2[C@@H]1O[C@H](COP(=O)(O)CP(=O)(O)O)[C@@H](O)[C@H]1O)c1ccccc1 | 0.7 |  | 
54 | CN(c1nc(Cl)nc2c1ncn2[C@@H]1O[C@H](COP(=O)(O)CP(=O)(O)O)[C@@H](O)[C@H]1O)C1CCCC1 | 0.12 |  | 
55 | Nc1nc(Cl)nc2c1ncn2[C@@H]1O[C@H](COP(=O)(O)CP(=O)(O)O)[C@@H](O)[C@@H]1F | 3.4 |  | 
56 | Nc1ncnc2c1ncn2[C@@H]1O[C@H](COP(=O)(O)CP(=O)(O)O)[C@@H](O)[C@H]1F | 18 |  | 
